Assays:
PPARα [1] = molecular target: T1, PPARα (Homo sapiens, UniProt Q07869); experiment: Fluorescent Polarization (FP) binding assay with corepressor peptides, PPARα; conditions: Nb = no binding
T1 construct: purchased Cayman Chemicals
T1 sequence (Q07869 239-466 limits assumed): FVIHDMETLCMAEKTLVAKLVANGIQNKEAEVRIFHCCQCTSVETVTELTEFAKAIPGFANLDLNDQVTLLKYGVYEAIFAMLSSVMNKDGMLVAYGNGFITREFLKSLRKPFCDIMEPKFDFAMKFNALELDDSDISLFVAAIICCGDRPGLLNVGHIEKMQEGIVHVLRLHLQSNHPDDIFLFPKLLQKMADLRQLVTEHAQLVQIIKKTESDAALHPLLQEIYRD
Method: (§1) For PPARγ screening, a fluorescent ligand supplied by Cayman Chemicals was also used. All compounds were dissolved in DMSO as 10 mM stock solutions and the final DMSO content in the assay was <1%. A TECAN Ultra 485 multi-functional microplate reader and GraphPad prism 4 software were used for measurements and analysis, respectively.
(§2) PPAR antagonists are expected to enhance the affinities of the corepressor peptides, and therefore, FP should increase as the compound concentration increases. Agonists would be expected to weaken the affinity of the same co-repressor peptide. Although this effect occurs for PPARγ, the dissociation of corepressor peptides varies for PPARα and PPARδ due to altered presentations of the overlapping coactivator/corepressor binding surfaces (Stanley T. B. et al. Biochemistry 42:9278-87, 2003). Compounds were screened initially against PPARγ and PPARδ at 1 and 100 μM. If binding was observed, titration experiments from 10 nM to 100 μM were carried out in triplicate with all three PPARs. […] For screening, either enhancement or weakening of FP was considered active.
(§3) Virtual screening for PPARγ was conducted against 56,000 compounds from the Maybridge library that targeted the ligand binding domain (LBD) of PPARγ, and 10 conformations of each compound were docked to the LBD using Autdock4 software (Scripps Institute). Sixty of the top ranked compounds were ordered from Maybridge, and 58 were available for evaluation. Fluorescent Polarization (FP) assays were established with the tagged co-repressor peptides NCoR1 and SMRT, the recombinant PPARα and PPARγ ligand-binding domains and full-length PPARδ. […] Sd-107 and its analogs are disclosed herein. The chemical structure is shown below.

PPARγ [2] = molecular target: T2, PPARγ (Homo sapiens, UniProt P37231); experiment: Fluorescent Polarization (FP) binding assay with corepressor peptides, PPARγ; conditions: for EC50 / Binding assay EC50, γ: FP assay, Nb = no binding; for EC50: read-out: Binding assay EC50, γ; for Competition in FPA of PPARγ with fluorescent labeled NCoR peptide probe: FIG. 17, YL-1-80 analogs
T2 construct: purchased Cayman Chemicals
T2 sequence (P37231 238-503 limits assumed): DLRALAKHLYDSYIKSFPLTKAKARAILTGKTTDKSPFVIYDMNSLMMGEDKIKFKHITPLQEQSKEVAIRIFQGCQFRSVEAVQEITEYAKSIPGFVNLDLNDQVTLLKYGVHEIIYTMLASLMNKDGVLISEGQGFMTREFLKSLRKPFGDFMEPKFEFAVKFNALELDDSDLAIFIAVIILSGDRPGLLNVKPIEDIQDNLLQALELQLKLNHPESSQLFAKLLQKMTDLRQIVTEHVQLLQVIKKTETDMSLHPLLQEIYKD
Method: as §1, §2, §3

PPARδ [3] = molecular target: T3, PPARδ (Homo sapiens, UniProt Q03181); experiment: Fluorescent Polarization (FP) binding assay with corepressor peptides, PPARδ; conditions: Nb = no binding
T3 construct: purchased Cayman Chemicals
T3 sequence (Q03181 1-441): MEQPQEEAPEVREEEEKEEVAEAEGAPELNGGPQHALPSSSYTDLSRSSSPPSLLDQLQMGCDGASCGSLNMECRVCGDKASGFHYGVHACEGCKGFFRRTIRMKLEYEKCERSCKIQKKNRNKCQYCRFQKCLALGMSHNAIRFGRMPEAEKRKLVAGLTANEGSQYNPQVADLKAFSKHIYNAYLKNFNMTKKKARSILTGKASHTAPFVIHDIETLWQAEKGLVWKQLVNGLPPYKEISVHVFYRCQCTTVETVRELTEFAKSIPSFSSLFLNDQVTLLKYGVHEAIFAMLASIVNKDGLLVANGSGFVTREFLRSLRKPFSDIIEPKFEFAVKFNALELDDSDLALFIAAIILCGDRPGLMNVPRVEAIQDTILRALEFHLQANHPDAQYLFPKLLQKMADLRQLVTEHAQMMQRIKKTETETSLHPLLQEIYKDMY
Method: as §1, §2, §3

PPARα [4] = experiment: PPAR reporter assay in 293T cells, PPARα (agonist WY14643); format: cell-based; conditions: 1 μM agonist WY14643
PPARγ [5] = molecular target: T4, PPARγ (Mus musculus, UniProt P37238); experiment: PPAR reporter assay in 293T cells, PPARγ (agonist GW7845); format: cell-based; conditions: for inhibition at 1 µM / inhibition at 10 µM / inhibition at 25 µM / inhibition at 2.5 µM: HEK-293T, 1 μM agonist GW7845, 293T cells, read-out: Reporter assay (% inhibition), γ; for inhibition at 1 µM: 1 μM compound; for inhibition at 10 µM: 10 μM compound; for inhibition at 25 µM: 25 μM compound; for inhibition at 2.5 µM: 2.5 μM compound
T4 construct: expressed in transfected cells; host or cells: 293T cells
T4 sequence (P37238 1-505): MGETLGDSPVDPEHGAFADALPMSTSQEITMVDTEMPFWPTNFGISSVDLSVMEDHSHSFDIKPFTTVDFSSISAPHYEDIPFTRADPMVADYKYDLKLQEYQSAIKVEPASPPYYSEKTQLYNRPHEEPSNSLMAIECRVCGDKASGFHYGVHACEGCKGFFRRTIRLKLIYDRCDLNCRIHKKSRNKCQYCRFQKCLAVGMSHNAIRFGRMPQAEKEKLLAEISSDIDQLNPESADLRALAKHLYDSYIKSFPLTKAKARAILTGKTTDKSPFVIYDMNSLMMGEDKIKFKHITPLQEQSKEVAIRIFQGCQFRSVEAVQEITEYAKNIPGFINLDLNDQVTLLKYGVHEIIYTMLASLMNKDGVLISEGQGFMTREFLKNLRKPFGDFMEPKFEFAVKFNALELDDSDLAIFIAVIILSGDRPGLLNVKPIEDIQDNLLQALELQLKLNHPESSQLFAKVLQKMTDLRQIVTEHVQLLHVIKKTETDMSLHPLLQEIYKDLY

PPARδ [6] = experiment: PPAR reporter assay in 293T cells, PPARδ (agonist GW501516); format: cell-based; conditions: 1 μM agonist GW501516
PPARα, PPARγ, PPARδ = experiment: PPAR reporter assays, isotype profile over the three PPARs; conditions: for PPAR inhibitor type (Table 1): from reporter data; for PPAR isotype selectivity in reporter assays: inhibition of activation by 1 μM agonist

Compound	Binding assay EC50, α (PPARα [1])	EC50 (PPARγ [2]) [nM]	Binding assay EC50, δ (PPARδ [3])	Reporter assay (% inhibition), α (PPARα [4]; 1 μM compound) [%]	Reporter assay (% inhibition), α (PPARα [4]; 10 μM compound) [%]	Reporter assay (% inhibition), α (PPARα [4]; 25 μM compound) [%]	inhibition at 1 µM (PPARγ [5]) [%]	inhibition at 10 µM (PPARγ [5]) [%]	inhibition at 25 µM (PPARγ [5]) [%]	Reporter assay (% inhibition), δ (PPARδ [6]; 1 μM compound)	Reporter assay (% inhibition), δ (PPARδ [6]; 10 μM compound) [%]	Reporter assay (% inhibition), δ (PPARδ [6]; 25 μM compound) [%]	PPAR inhibitor type (Table 1) (PPARα, PPARγ, PPARδ)	further results
O=C1NN(c2cccc(F)c2)C(=O)/C1=C\c1ccc(-c2ccc(S(=O)(=O)Nc3ncco3)cc2)o1 [Sd-107-10]	nb	560	δ nb	0	0	20	0	40	85	0%	0	10	PPARγ inhibitor	PPAR isotype selectivity in reporter assays (PPARα, PPARγ, PPARδ): greatest selectivity for PPARγ
COc1ccc(S(=O)(=O)N(C(=O)c2ccc(Cl)cc2)N(C(=O)c2ccc(Cl)cc2)C(=O)c2ccc(Cl)cc2)cc1 [YL-1-38-1]	nb	40800	δ nb	0	15	40	0	50	75	0%	0	47	Pan inhibitor	Effect on FP of corepressor peptide, PPARγ (PPARγ [2]; FIG. 3): weakened the affinity of the peptide to PPARγ; Selectivity of binding in FP assay (PPARγ [2]; titration with all three PPARs): selective binding to PPARγ; Reporter assay (% inhibition), α (PPARα [4]; 2.5 μM compound): 0%; inhibition at 2.5 µM (PPARγ [5]): 16%; Reporter assay (% inhibition), δ (PPARδ [6]; 2.5 μM compound): 0%
CC(C)(C)c1ccc(S(=O)(=O)N(C(=O)c2ccc(Cl)cc2)N(C(=O)c2ccc(Cl)cc2)C(=O)c2ccc(Cl)cc2)cc1 [YL-1-68-1]	α nb γ nb		δ nb	0	0	17	0	50	75	0%	0	47	PPARγ/δ inhibitor	Binding assay EC50, γ (PPARγ [2]): α nb γ nb; inhibition at 2.5 µM (PPARγ [5]): 16%; Reporter assay (% inhibition), δ (PPARδ [6]; 2.5 μM compound): 0%
CC(C)(C)c1ccc(S(=O)(=O)N(NC(=O)c2ccc(Cl)cc2)C(=O)c2ccc(Cl)cc2)cc1 [YL-1-68-2]	nb	1400	δ nb	16	23	57	0	23	67	0%	18	46	Pan inhibitor	
CC(C)(C)c1ccc(C(=O)N(N)S(=O)(=O)c2ccc(C(C)(C)C)cc2)cc1 [YL-1-69]	α nb γ nb		δ nb	0	15	20	0	25	50	0%	10	20	Pan inhibitor	Binding assay EC50, γ (PPARγ [2]): α nb γ nb
CC(C)(C)c1ccc(C(=O)N(NC(=O)c2ccc(Cl)cc2)S(=O)(=O)c2ccc(C(C)(C)C)cc2)cc1 [YL-1-80]	nb	9200	δ nb	0	24	53	18	58	79	δ 12%	31	64	Pan inhibitor	Competition in FPA of PPARγ with fluorescent labeled NCoR peptide probe (PPARγ [2]): best competition
O=C(NN(C(=O)c1ccc(Cl)cc1)S(=O)(=O)c1ccc(C(F)(F)F)cc1)c1ccc(Cl)cc1 [YL-1-81]	nb	15200	δ nb			8			32			46	PPARγ/δ inhibitor	
CC(C)(C)c1ccc(S(=O)(=O)N(NC(=O)c2ccc(Cl)nc2)C(=O)c2ccc(Cl)nc2)cc1 [YL-1-83]		110	δ nb	0	0	0	0	0	37	0%	0	0	PPARγ inhibitor	EC50 (PPARα [1]; read-out: Binding assay EC50, α): 1300 nM; Competition in FPA of PPARγ with fluorescent labeled NCoR peptide probe (PPARγ [2]): best competition; PPARγ antagonism (PPARγ [5]; binding and reporter screening): weak PPARγ antagonist; PPAR isotype selectivity in reporter assays (PPARα, PPARγ, PPARδ): more selective for PPARγ

Reference: patent publication US20130158063A1, “Compounds, Compositions and Methods Related to PPAR Antagonists” (GEORGETOWN UNIVERSITY, priority 2010, published 2013)
